Like-named read-outs stand apart in the source and are kept apart here.
Experiments:
[1] = tested on: A/Aichi/2/69 (H3N2) influenza virus; experiment: Induced influenza pneumonia in mice; conditions: for Average lifetime (days) / Death rate (%) / Percent death protection (%) / Survival (survivors/total): observation day 16
[2] = tested on: A/Swine/1976/31 (H1N1) influenza virus; format: in vivo, mice; conditions: for Infectious virus titer (log10EID50/20 mg tissue): lung tissue
[3] = intraperitoneally 100 mg/kg/day

N-fullerene tris(δ-aminocaproic acid) hydrate [Agent 1]
Percent body weight change ([1]; intraperitoneally 50 mg/kg/day, day 13 post infection): +77% | Average lifetime (days) ([1]; intraperitoneally 50 mg/kg/day): 11.5 (1-5 d., 1-7 d., 3-11 d.) days | Death rate (%) ([1]; intraperitoneally 50 mg/kg/day): 50% | Percent death protection (%) ([1]; intraperitoneally 50 mg/kg/day): 40% | Survival (survivors/total) ([1]; intraperitoneally 50 mg/kg/day): 5/10 | Percent body weight change ([1]; intraperitoneally 100 mg/kg/day, day 1 post infection): +9% | Percent body weight change ([1]; intraperitoneally 100 mg/kg/day, day 2 post infection): +15% | Percent body weight change ([1]; intraperitoneally 100 mg/kg/day, day 3 post infection): +19% | Percent body weight change ([1]; intraperitoneally 100 mg/kg/day, day 4 post infection): +21% | Percent body weight change ([1]; intraperitoneally 100 mg/kg/day, day 5 post infection): +21% | Percent body weight change ([1]; intraperitoneally 100 mg/kg/day, day 7 post infection): +27% | Percent body weight change ([1]; intraperitoneally 100 mg/kg/day, day 9 post infection): +37% | Percent body weight change ([1]; intraperitoneally 100 mg/kg/day, day 11 post infection): +50% | Percent body weight change ([1]; intraperitoneally 100 mg/kg/day, day 13 post infection): +82% | Average lifetime (days) [1, 3]: 11.0 (3-7 d., 1-8 d., 1-11 d) days | Death rate (%) [1, 3]: 50% | Percent death protection (%) [1, 3]: 40% | Survival (survivors/total) [1, 3]: 5/10 | Percent body weight change ([1]; orally 100 mg/kg/day, day 1 post infection): +12% | Percent body weight change ([1]; orally 100 mg/kg/day, day 2 post infection): +17% | Percent body weight change ([1]; orally 100 mg/kg/day, day 3 post infection): +23% | Percent body weight change ([1]; orally 100 mg/kg/day, day 4 post infection): +25% | Percent body weight change ([1]; orally 100 mg/kg/day, day 5 post infection): +24% | Percent body weight change ([1]; orally 100 mg/kg/day, day 7 post infection): +21% | Percent body weight change ([1]; orally 100 mg/kg/day, day 9 post infection): +23% | Percent body weight change ([1]; orally 100 mg/kg/day, day 11 post infection): +34% | Percent body weight change ([1]; orally 100 mg/kg/day, day 13 post infection): +44% | Average lifetime (days) ([1]; orally 100 mg/kg/day): 10.4 (2-7 d., 1-9 d., 1-10 d) days | Death rate (%) ([1]; orally 100 mg/kg/day): 50% | Percent death protection (%) ([1]; orally 100 mg/kg/day): 40% | Survival (survivors/total) ([1]; orally 100 mg/kg/day): 5/10 | Percent body weight change ([1]; orally 200 mg/kg/day, day 1 post infection): +15% | Percent body weight change ([1]; orally 200 mg/kg/day, day 2 post infection): +20% | Percent body weight change ([1]; orally 200 mg/kg/day, day 3 post infection): +23% | Percent body weight change ([1]; orally 200 mg/kg/day, day 4 post infection): +25% | Percent body weight change ([1]; orally 200 mg/kg/day, day 5 post infection): +24% | Percent body weight change ([1]; orally 200 mg/kg/day, day 7 post infection): +22% | Percent body weight change ([1]; orally 200 mg/kg/day, day 9 post infection): +25% | Percent body weight change ([1]; orally 200 mg/kg/day, day 11 post infection): +45% | Percent body weight change ([1]; orally 200 mg/kg/day, day 13 post infection): +57% | Average lifetime (days) ([1]; orally 200 mg/kg/day): 13.0 (1-7 d., 1-10 d., 1-11 d) days | Death rate (%) ([1]; orally 200 mg/kg/day): 30% | Percent death protection (%) ([1]; orally 200 mg/kg/day): 60% | Survival (survivors/total) ([1]; orally 200 mg/kg/day): 7/10 | Average lifetime (LD) ([2]; 30 mg/kg, Summary dose, n=30): 10.6 days | Increase in LD ([2]; 30 mg/kg, Summary dose, n=30): 1.9 days | Mortality rate, % ([2]; 30 mg/kg, Summary dose, n=30): 56.7% | Number of survivors ([2]; 30 mg/kg, Summary dose, n=30): 13 | Average lifetime (LD) ([2]; 30 mg/kg, virus 1 LD50, n=15): 12.3 days | Increase in LD ([2]; 30 mg/kg, virus 1 LD50, n=15): 1.7 days | Mortality rate, % ([2]; 30 mg/kg, virus 1 LD50, n=15): 40.0% | Number of survivors ([2]; 30 mg/kg, virus 1 LD50, n=15): 9 | Average lifetime (LD) ([2]; 30 mg/kg, virus 10 LD50, n=15): 8.9 days | Increase in LD ([2]; 30 mg/kg, virus 10 LD50, n=15): 2.4 days | Mortality rate, % ([2]; 30 mg/kg, virus 10 LD50, n=15): 73.3% | Number of survivors ([2]; 30 mg/kg, virus 10 LD50, n=15): 4 | Average lifetime (LD) ([2]; 100 mg/kg, Summary dose, n=28): 11.8 days | Increase in LD ([2]; 100 mg/kg, Summary dose, n=28): 3.1 days | Mortality rate, % ([2]; 100 mg/kg, Summary dose, n=28): 39.3% | Number of survivors ([2]; 100 mg/kg, Summary dose, n=28): 17 | Average lifetime (LD) ([2]; 100 mg/kg, virus 1 LD50, n=15): 13.1 days | Increase in LD ([2]; 100 mg/kg, virus 1 LD50, n=15): 2.5 days | Mortality rate, % ([2]; 100 mg/kg, virus 1 LD50, n=15): 26.7% | Number of survivors ([2]; 100 mg/kg, virus 1 LD50, n=15): 11 | Average lifetime (LD) ([2]; 100 mg/kg, virus 10 LD50, n=13): 10.3 days | Increase in LD ([2]; 100 mg/kg, virus 10 LD50, n=13): 3.7 days | Mortality rate, % ([2]; 100 mg/kg, virus 10 LD50, n=13): 53.8% | Number of survivors ([2]; 100 mg/kg, virus 10 LD50, n=13): 6 | Average lifetime (LD) ([2]; 300 mg/kg, Summary dose, n=28): 12.3 days | Increase in LD ([2]; 300 mg/kg, Summary dose, n=28): 3.7 days | Mortality rate, % ([2]; 300 mg/kg, Summary dose, n=28): 32.1% | Number of survivors ([2]; 300 mg/kg, Summary dose, n=28): 19 | Size of chronic post-influenza pneumonia sites (% of the total surface area of the lungs) ([2]; 300 mg/kg, the lower of the virus doses used, day 15): 25 ± 7% | Average lifetime (LD) ([2]; 300 mg/kg, virus 1 LD50, n=14): 13.6 days | Increase in LD ([2]; 300 mg/kg, virus 1 LD50, n=14): 3.0 days | Mortality rate, % ([2]; 300 mg/kg, virus 1 LD50, n=14): 21.4% | Number of survivors ([2]; 300 mg/kg, virus 1 LD50, n=14): 11 | Average lifetime (LD) ([2]; 300 mg/kg, virus 10 LD50, n=14): 11.0 days | Increase in LD ([2]; 300 mg/kg, virus 10 LD50, n=14): 4.4 days | Mortality rate, % ([2]; 300 mg/kg, virus 10 LD50, n=14): 42.9% | Number of survivors ([2]; 300 mg/kg, virus 10 LD50, n=14): 8 | Infectious virus titer (log10EID50/20 mg tissue) ([2]; 300 mg/kg, virus dose 1 LD50): 3.7 ± 0.3 log10EID50/20 mg tissue | Infectious virus titer (log10EID50/20 mg tissue) ([2]; 300 mg/kg, virus dose 5 LD50): 4.1 ± 0.2 log10EID50/20 mg tissue

Source: US9096492B2, “Hydrated N-fullerene amino acids, method for producing the latter, and pharmaceutical compositions on the basis thereof” (priority 2011, dated 2015)
